Laboratory results from paper PMC7311425, “DREAM-in-CDM Approach and Identification of a New Generation of Anti-inflammatory Drugs Targeting mPGES-1” (Scientific Reports, 2020).
Several values for one entry are separate records, joined by “and”; a condition that tells them apart may be missing. Equal values may be shown once. Entries after “also recorded” stand apart in the source; their conditions may differ. Read-outs that look alike come from different tables or passages of the source.

Assays:
[1] = target: T1, human mPGES-1 (Homo sapiens, UniProt O14684); experiment: in vitro inhibitory activity against human mPGES-1 (PGE2 ELISA assay); format: biochemical; settings: for inhibition at 10 µM: read-out: Inhibition (%) at 10 µM; for IC50: human mPGES-1
T1 construct: made in house
T1 sequence (O14684 1-152): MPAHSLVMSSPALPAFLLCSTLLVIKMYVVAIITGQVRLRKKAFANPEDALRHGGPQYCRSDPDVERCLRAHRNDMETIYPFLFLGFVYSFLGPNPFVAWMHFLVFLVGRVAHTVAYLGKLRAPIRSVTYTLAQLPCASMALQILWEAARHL
Protocol: The above computational predictions were followed by in vitro activity assays for their actual inhibitory activity against human mPGES-1 using an ELISA assay described in our previous reports[32]–[34]. […] Specifically, 15 FDA-approved drugs (see Fig. S1 of the Supporting Information for the molecular structures) were assayed for their inhibitory activity against human mPGES-1.
(§1) The protocol for the protein preparation and in vitro activity assays were the same as described previously[51]–[54]. The enzyme activity assays were performed on ice in 1.5 ml microfuge tubes by using the expressed human or mouse mPGES-1. The reaction mixture contained: 0.2 M Na2HPO4/NaH2PO4, pH 7.2, 10 µL; 0.1 M GSH, 2.5 µL; diluted microsomal enzyme (80 µg/mL), 1 µL; PGH2 (0.31 mM in DMF), 5 µL; 1 µL inhibitor; and H2O in a final reaction volume of 100 µL. PGH2 was stored in dry ice and used to initiate the reaction. Compounds were incubated with the enzyme for 15 min at room temperature before the addition of cold PGH2 ([…]) to initiate the enzyme reaction. After 30 s, 10 µL of SnCl2 (40 mg/mL) in ethanol was added to stop the reaction. The non-enzymatic conversion of PGH2 to PGE2 was performed in the same buffer devoid of enzyme. The reaction mixture was placed on ice until PGE2 production was determined by the PGE2 enzyme immunoassay as described earlier. IC50 values of the inhibitors were calculated by using the GraphPad Prism 7.

[2] = tested on: mixed COX-1 and COX-2 (COX-1/2); experiment: COX (ovine/human) inhibitor screening assay, mixed COX-1 and COX-2; format: biochemical; settings: 100 µM; equal amounts of COX-1 and COX-2
From the text: We used a mixture of equal amounts of purified COX-1 and COX-2 proteins and followed the protocol recommended by the vendor.

[3] = target: T1, human mPGES-1; experiment: mPGES-1 enzyme activity at various GSH concentrations, Lineweaver-Burk plots; format: biochemical
Protocol: as §1

[4] = tested on: air-pouch PGE2 level; experiment: mouse air-pouch model of inflammation (carrageenan), air-pouch PGE2 by ELISA; format: in vivo
Protocol: The air-pouch fluid collected from mice were analyzed by ELISA assay for the PGE2 concentrations. GraphPad Prism 7 software (GraphPad Software, La Jolla, CA) was used to perform the one-way analysis of variance (ANOVA) with post hoc tests.
All the animal experiments were conducted in our animal laboratories in the University of Kentucky’s Division of Laboratory Animal Resources (DLAR) facility (PHS assurance number A3336-01; USDA number 61-R-0002; AAALAC, Intl. Unit # 13) following the guidelines and regulations of the AAALAC and National Institutes of Health (NIH). The animal procedure used in this project was approved by the University of Kentucky’s Institutional Animal Care and Use Committee (IACUC). The air-pouch model of inflammation[23],[55] is widely used for determining the in vivo effectiveness of inhibitors of prostaglandin synthesis. Air pouches were produced by duplicate injections of 3 mL of sterile air under the skin on the back of mice. […] The air-pouch fluid samples were analyzed for PGE2 by the same ELISA method used in the in vitro enzyme activity assay mentioned above.
GraphPad Prism 7 software (GraphPad Software, La Jolla, CA) was used to perform the one-way analysis of variance (ANOVA) with post hoc testing, allowing us to examine the significance of the difference in the in vivo activity data between each pair of dose conditions. p < 0.05 was considered statistically significant.

[5] = predicted Cmax in human organs from rat organ/plasma ratios; format: in vivo; settings: 50 mg, from rat organ/plasma ratios [56]
From the text: In addition, the reported ratios of Cmax values in various organs of rat to Cmax in rat plasma, along with the Cmax values in human plasma, were used to predict the Cmax values in the corresponding organs of human corresponding to the Cmax values in human plasma.

[6] = cited from earlier work
[7] = human, read-out: Cmax (µM) in plasma, cited from earlier work
[8] = mouse, in vivo; cited from earlier work

Structure (SMILES): COc1cc(C)c(/C=C/C(C)=C/C=C/C(C)=C/C(=O)O)c(C)c1C [Acitretin]
- inhibition at 10 µM ([1]; 10 µM, single concentration): 83%
- IC50 [1]: 3.5 ± 1.6 µM

Structure (SMILES): CC(C)(C)C(=O)OCOP(=O)(COCCn1cnc2c(N)ncnc21)OCOC(=O)C(C)(C)C [Adefovir Dipivoxil]
- inhibition at 10 µM ([1]; 10 µM, single concentration): 19%

Structure (SMILES): COc1cc2nc(N(C)CCCNC(=O)C3CCCO3)nc(N)c2cc1OC (stereo not drawn) [Alfuzosin]
- inhibition at 10 µM ([1]; 10 µM, single concentration): 22%

Structure (SMILES): CCCCC[C@H](O)/C=C/[C@H]1[C@H](O)CC(=O)[C@@H]1CCCCCCC(=O)O [Alprostadil]
- inhibition at 10 µM ([1]; 10 µM, single concentration): 11%

Structure (SMILES): C=C1/C(=C\C=C2/CCC[C@]3(C)[C@@H]([C@H](C)/C=C/[C@@H](O)C4CC4)CC[C@@H]23)C[C@@H](O)C[C@@H]1O [Calcipotriene]
- inhibition at 10 µM ([1]; 10 µM, single concentration): 68%
- IC50 [1]: 3 ± 1.1 µM

Structure (SMILES): COCC1=C(C(=O)O)N2C(=O)[C@@H](NC(=O)/C(=N\OC)c3csc(N)n3)[C@H]2SC1 [Cefpodoxime]
- inhibition at 10 µM ([1]; 10 µM, single concentration): 47%
- IC50 [1]: 29.7 ± 6.3 µM

Structure (SMILES): CCCCC[C@H](O)/C=C/[C@H]1[C@H](O)CC(=O)[C@@H]1C/C=C\CCCC(=O)O [Dinoprostone]
- inhibition at 10 µM ([1]; 10 µM, single concentration): 4%

Structure (SMILES): OCCN(CCO)c1nc(N2CCCCC2)c2nc(N(CCO)CCO)nc(N3CCCCC3)c2n1 [Dipyridamole]
- inhibition at 10 µM ([1]; 10 µM, single concentration): 36%

Structure (SMILES): COc1cc2nc(N3CCN(C(=O)C4COc5ccccc5O4)CC3)nc(N)c2cc1OC (stereo not drawn) [Doxazosin]
- inhibition at 10 µM ([1]; 10 µM, single concentration): 21%

Structure (SMILES): C[C@]12CC[C@@H]3c4ccc(OC(=O)N(CCCl)CCCl)cc4CC[C@H]3[C@@H]1CC[C@@H]2OP(=O)(O)O [Estramustine Phosphate]
- inhibition at 10 µM [1]: 36%

Structure (SMILES): CS(=O)(=O)CCNCc1ccc(-c2ccc3ncnc(Nc4ccc(OCc5cccc(F)c5)c(Cl)c4)c3c2)o1 [Lapatinib]
- inhibition at 10 µM ([1]; 10 µM, single concentration): 99%
- IC50 [1]: 0.8 µM and ~0.8 µM
- inhibition of COX-1/2 [2]: did not significantly inhibit
- effect on Vmax ([3]; 1 µM lapatinib): did not significantly change
- mode of inhibition with respect to GSH ([3]; 1 µM lapatinib, GSH at different concentrations): competes with co-factor GSH; also recorded: GSH-competitive inhibitor
- y-intercept of Lineweaver-Burk plot (1/Vmax) ([3]; in the presence of 1 µM lapatinib (0.15 ± 0.02 in the absence)): 0.18 ± 0.02
- effect on air-pouch PGE2 level ([4]; carrageenan-treated mice, PO, 24 hours): significantly and dose-dependently decreased
- effectiveness in comparison with celecoxib 50 mg/kg (PO) ([4]; lapatinib 50 mg/kg PO): less effective
- difference in in vivo potency versus 50 mg/kg celecoxib (PO) ([4]; lapatinib 100 mg/kg PO): no significant difference
- Cmax ([5]; read-out: Predicted Cmax (µM) Kidney): ~1.3 µM
- Cmax ([5]; read-out: Predicted Cmax (µM) Lung): ~2 µM
- dose-limiting toxicity (DLT) ([6]; Phase I dose-escalation, up to 7000 mg per day in twice-daily dosing): no dose-limiting toxicity
- adverse effects in phase I clinical trials ([6]; non-cancer patients): did not cause any serious adverse effects
- Cmax ([7]; 10 mg, GW572016 ditosylate monohydrate oral suspension, ref Bence et al.[38]): 0.019 µM
- Cmax ([7]; 25 mg, GW572016 ditosylate monohydrate oral suspension, ref Bence et al.[38]): 0.04 µM
- Cmax ([7]; 50 mg, GW572016 ditosylate monohydrate oral suspension, ref Bence et al.[38]): 0.124 µM
- Cmax ([7]; 100 mg, GW572016 ditosylate monohydrate oral suspension, ref Bence et al.[38]): 0.213 µM
- Cmax ([7]; 175 mg, GW572016 ditosylate monohydrate oral suspension, ref Bence et al.[38]): 0.38 µM
- Cmax ([7]; 250 mg, GW572016 ditosylate monohydrate oral suspension, ref Bence et al.[38]): 0.546 µM
- Cmax ([7]; 500 mg, 100-mg and 250-mg tablets, daily oral, ref clinical trial EGF10004): 1.76 µM
- Cmax ([7]; 650 mg, 100-mg and 250-mg tablets, daily oral, ref clinical trial EGF10004): 2.24 µM
- Cmax ([7]; 900 mg, 100-mg and 250-mg tablets, daily oral, ref clinical trial EGF10004): 2.93 µM
- Cmax ([7]; 1000 mg, 100-mg and 250-mg tablets, daily oral, ref clinical trial EGF10004): 3.18 µM
- Cmax ([7]; 1250 mg orally once daily, ref clinical trial NCT00477464): 6.06 µM
- Cmax ([7]; 1500 mg, 6 pills at 250 mg once oral daily, average of 36 data points from 6 subgroups, ref clinical trial NCT00486954 and NCT01138046): 8.6 µM

Structure (SMILES): CC1(C)S[C@@H]2[C@H](NC(=O)COc3ccccc3)C(=O)N2[C@H]1C(=O)O [Penicillin V Potassium]
- inhibition at 10 µM ([1]; 10 µM, single concentration): 36%

Structure (SMILES): C[C@]12C=CC(=O)C=C1CC[C@@H]1[C@@H]2[C@@H](O)C[C@@]2(C)[C@H]1CC[C@]2(O)C(=O)CO [Prednisolone]
- inhibition at 10 µM ([1]; 10 µM, single concentration): 44%

Structure (SMILES): Cc1ccccc1C(=O)Nc1ccc(C(=O)N2CCCC(O)c3cc(Cl)ccc32)c(C)c1 (stereo not drawn) [Tolvaptan]
- inhibition at 10 µM ([1]; 10 µM, single concentration): 52%
- IC50 [1]: 10.2 ± 2.5 µM

Structure (SMILES): CCOC(=O)[C@H](CCc1ccccc1)N[C@@H](C)C(=O)N1[C@H](C(=O)O)C[C@H]2CCCC[C@@H]21 [Trandolapril]
- inhibition at 10 µM ([1]; 10 µM, single concentration): 54%
- IC50 [1]: 9 ± 2.3 µM

Structure (SMILES): Cc1ccc(-c2cc(C(F)(F)F)nn2-c2ccc(S(N)(=O)=O)cc2)cc1 [celecoxib]
- toxicity in mice [8]: significant toxicity
